Assay results published in US20240181022A1, “AMURINS LYSINS, AND LYSIN-ANTIMICROBIAL PEPTIDE (AMP) CONSTRUCTS ACTIVE AGAINST GRAM-NEGATIVE BACTERIA” (priority 2021, published 2024).
Where no end group is shown, it is not given here. [ ]: non-standard residue; d: D form.

How the values were obtained:
[1] = test system: Gram-negative bacteria (including P. aeruginosa, E. cloacae, K. pneumoniae, E. coli, and A. baumannii); experiment: Inner membrane depolarization (diSC3-5 release); type: cell-based; conditions: equivalent or superior to melittin, LL37, RI-18, and PMBN
Source text: The mechanism of action of Chp peptides disclosed herein can also be evaluated by measuring the depolarization of the inner membrane of Gram-negative bacteria, including MDR and XDR strains. The inner membrane comprises […] phospholipids such as cardiolipin, phosphatidylglycerol, and phosphatidylserine. This creates a net negative charge at physiological pH, which is believed to enhance the binding of cationic peptides, including the Chp peptides disclosed herein. Upon permeabilization of the outer membrane, the ability of Chp peptides to induce dissipation of the cytoplasmic membrane electrical potential gradient (Ay) may be examined, for example by following the release of 3,3′-dipropylthiadicarbocyanine (diSC3-5) as a function of time compared to an untreated control. DiSC3-5 is a fluorophore that is a caged cation concentrated within the bacterial inner membrane and under the influence of the bacterial membrane electrical potential gradient. At high concentrations, diSC3-5 self-quenches, leading to the suppression of fluorescence. When the inner membrane deteriorates or becomes leaky for cations, including protons, the Δψ dissipates, which leads to a release of diSC3-5 and a subsequent increase in fluorescence. […] Without wishing to be bound by theory, it is believed that the adsorption and binding of Chp peptides to the inner membrane and insertion into the lipid bilayer results in membrane permeabilization and pore/ion channel formation, which is concomitant with the collapse of the membrane's electrical potential.

[2] = test system: Achromobacter spp.; experiment: MIC by broth microdilution against Achromobacter spp.; type: cell-based; conditions: Tables 8-12
Description: (§1) MIC values were determined using a modification of the standard broth microdilution reference method defined by the Clinical and Laboratory Standards Institute (CLSI), CLSL. 2015. Methods for Dilution Antimicrobial Susceptibility Tests for Bacteria That Grow Aerobically; Approved Standard-10th Edition. Clinical and Laboratory Standards Institute, Wayne, PA. The modification was based on the replacement of Mueller Hinton Broth with either CAA media (with and without NaCl) or CAA supplemented with 2.5% human serum. MIC is the minimum concentration of peptide sufficient to suppress at least 80% of the bacterial growth compared to control.
(§2) The MICs for were determined as described below using the broth microdilution method for meropenem, GN370, AM1, AM2, and AM3. The results are shown below in Tables 8-12.

[3] = test system: P. aeruginosa; experiment: Serial passage resistance development study, P. aeruginosa; type: cell-based, Pseudomonas aeruginosa; conditions: P. aeruginosa strain CFS 1292, Day 28
[4] = test system: M. avium; experiment: MIC against M. avium; type: cell-based, Mycobacterium avium; conditions: M. avium (ATCC 700898); CAAT media
[5] = test system: S. maltophilia; experiment: Serial passage resistance development study, S. maltophilia; type: cell-based, Stenotrophomonas maltophilia; conditions: S. maltophilia, day 28, triplicate
[6] = test system: P. aeruginosa; experiment: Time-kill assay in cystic fibrosis patient sputum, P. aeruginosa; type: cell-based, Pseudomonas aeruginosa; conditions: for effect of sputum on antibacterial activity: 10% CF sputum vs no sputum; for killing by 1 hour, maintained by 24 hours: time-kill
Source text: Sputum from 5 cystic fibrosis patients was pooled. The resulting mixture was not filtered, as it was very dense and not amenable to sterilization by filtration. Sputum is known to be a complex mixture of DNA, carbohydrates, and lipids ([…], 2016). As used herein, the term “sputum” refers to the mucus present in the respiratory tract of an animal, such as a human. Sputum may increase in thickness due to the irritation or infection, including bacterial infection, and in some instances, may be expelled by the animal while coughing. In certain instances, cystic fibrosis may be characterized by the presence of a thick, sticky mucus or sputum present in the lungs of cystic fibrosis patients. The activity of GN370, AM1, AM2, AM3, and meropenem was determined in the sputum using a time-kill assay format as disclosed in Zhang et al., Antimicrobial peptide therapeutics for cystic fibrosis, Antimicrobial Agents Chemother. 2005; 49(7):2921-2927. […] Untreated controls were included in addition to pretreatment plating (t=0) for a baseline CFU determination. Activity was also determined in the absence of sputum for comparison to activity observed in the presence of sputum.

[7] = test system: M. smegmatis; experiment: MIC against M. smegmatis; type: cell-based, Mycobacterium smegmatis; conditions: M. smegmatis (MC 155); CAAT media
[8] = test system: A. dolens; type: cell-based, Achromobacter dolens
Description: The MBEC (after 2-hour treatments) was determined as described in Jones and Wozniak, PsI Produced by Mucoid Pseudomonas aeruginosa Contributes to the Establishment of Biofilms and Immune Evasion, Am. Soc. Microbiol. 2017, 8(3):e00864-17. Meropenem and tobramycin were included as controls and were both poorly active, with MBEC90 values of >256 μg/mL (data not shown).

[9] = test system: P. apista; experiment: MIC by broth microdilution against P. apista; type: cell-based, Pandoraea apista; conditions: P. apista isolates
Description: as §1
(§3) Based on these nine most prevalent strains, direct lytic agents, including GN370, AM1, AM2, and AM3, were evaluated against various isolates from each of the 9 strains. MICs and MBECs (Example 3) were determined, and a sputum inhibition test was conducted, as described below in Example 5.
as §2

[10] = test system: A. ruhlandii; experiment: MIC by broth microdilution against A. ruhlandii; type: cell-based, Achromobacter ruhlandii; conditions: A. ruhlandii isolates
Description: as §1, §3, §2

[11] = test system: B. cenocepacia; experiment: MIC by broth microdilution against B. cenocepacia; type: cell-based, Burkholderia cenocepacia; conditions: B. cenocepacia isolates
Description: as §1, §3, §2

[12] = test system: B. multivorans; experiment: MIC by broth microdilution against B. multivorans; type: cell-based, Burkholderia multivorans; conditions: B. multivorans isolates
Description: as §1, §3, §2

[13] = test system: P. aeruginosa; conditions: for antibiofilm activity (MBEC) against P. aeruginosa: 2-hour treatments
[14] = test system: B. gladioli; experiment: MIC by broth microdilution against B. gladioli; type: cell-based, Burkholderia gladioli; conditions: B. gladioli isolates; for MIC Range: in µg/mL
Description: as §1, §3, §2

Substance	inner membrane depolarization (diSC3-5) [1]	activity (MIC) against Achromobacter spp. [2]	change in MIC over serial passage [3]	MIC [4]	change in MIC over serial passage [5]	effect of sputum on antibacterial activity [6]	Log10 CFU/mL of sputum ([6]; absence of sputum, 1 hr)	Log10 CFU/mL of sputum ([6]; absence of sputum, 3 hr)	Log10 CFU/mL of sputum ([6]; absence of sputum, 24 hr)	Log10 CFU/mL of sputum ([6]; presence of 10% sputum, 1 hr)	Log10 CFU/mL of sputum ([6]; presence of 10% sputum, 3 hr)	Log10 CFU/mL of sputum ([6]; presence of 10% sputum, 24 hr)	killing by 1 hour, maintained by 24 hours [6]	MIC [7]	MBEC50 [8]	MBEC90 [8]	MBEC Range [8]	MIC50 [9]	MIC90 [9]	MIC50 [10]	other results
MRLKMARRRYRLPRRRSRRLFSRTALRMHPRNRLRRIMRGGIRF [AM1]	dose-dependent increase in membrane depolarization	highly active	no significant changes	1 Tg/mL	no increase in MIC	not inhibited	2.3 Log10 CFU/mL of sputum	2.3 Log10 CFU/mL of sputum	2.3 Log10 CFU/mL of sputum	2.3 Log10 CFU/mL of sputum	2.3 Log10 CFU/mL of sputum	2.3 Log10 CFU/mL of sputum	complete killing	4 µg/mL	2 µg/mL	4 µg/mL	1 to 8 µg/mL	64 µg/mL	> 128 µg/mL	1 µg/mL	MIC90 [10]: 4 µg/mL; MIC Range ([10]; in µg/mL): 0.125-8; MIC50 [11]: > 128 µg/mL; MIC90 [11]: > 128 µg/mL; MIC50 [12]: 128 µg/mL; MIC90 [12]: > 128 µg/mL; MBEC50 [13]: 0.5 µg/mL; MBEC90 [13]: 1 µg/mL; MBEC Range [13]: 0.064 to 2 µg/mL; antibiofilm activity (MBEC) against P. aeruginosa [13]: highly active; MIC50 [14]: 8 µg/mL; MIC90 [14]: 64 µg/mL; MIC Range [14]: 0.03-128
M[dR]L[dK]MA[dR][dR][dR]Y[dR]LP[dR][dR][dR]S[dR][dR]LFS[dR]TAL[dR]MHP[dR]N[dR]L[dR][dR]IM[dR]GGI[dR]F [AM2]	dose-dependent increase in membrane depolarization	variably active	no significant changes	1 Tg/mL	no increase in MIC	not inhibited	2.3 Log10 CFU/mL of sputum	2.3 Log10 CFU/mL of sputum	2.3 Log10 CFU/mL of sputum	2.3 Log10 CFU/mL of sputum	2.3 Log10 CFU/mL of sputum	2.3 Log10 CFU/mL of sputum	complete killing	0.5 µg/mL	4 µg/mL	8 µg/mL	1 to 8 µg/mL	> 128 µg/mL	> 128 µg/mL	2 µg/mL	MIC90 [10]: 16 µg/mL; MIC50 [11]: > 128 µg/mL; MIC90 [11]: > 128 µg/mL; MIC50 [12]: > 128 µg/mL; MIC90 [12]: > 128 µg/mL; MBEC50 [13]: 0.25 µg/mL; MBEC90 [13]: 1 µg/mL; MBEC Range [13]: 0.016 to 2 µg/mL; antibiofilm activity (MBEC) against P. aeruginosa [13]: highly active; MIC50 [14]: 4 µg/mL; MIC90 [14]: 8 µg/mL; MIC Range [14]: 0.016-16
